From patent US20210299098A1, “SELECTIVE ESTROGEN RECEPTOR MODULATOR FOR TREATMENT OF PANCREATIC CANCER” (CIPLA LIMITED, priority 2020, published 2021)

What was measured:
[1] = used as oral contraceptive; cited from earlier work
estrogen receptor = conditions: according to literature; cited from earlier work
[2] = tested on: Panc 10.05 pancreatic cancer cell line; experiment: CellTiter-Blue cell viability assay, Panc10.05; format: cell-based; conditions: Homo sapiens, Panc1005; Panc10.05 cell line; 96 hours treatment
Procedure: (§1) The in vitro anti-tumor activity of levormeloxifene or its pharmaceutically acceptable salt was evaluated in six human pancreatic cancer cell lines: AsPc 1 (A), BxPC3 (B), Miapaca2 (C), Panc 10.05 (D), SW1990 (E) and Panc 1 (F). AsPc 1 (A), BxPC3 (B), Miapaca2 (C), Panc 10.05 (D), SW1990 (E) and Panc 1 (F) were established at Oncotest from the corresponding human patient derived xenograft. CAPAN-2, HUP-T3 and PA-TU-8902 were purchased from DSMZ (Braunschweig, Germany). PANC-1 was purchased from CLS Cell Line Services GmbH (Eppelheim, Germany). BxPC-3, HPAC and MIA-Pa-Ca-2 were purchased from ATCC (Rockville, Md., USA). Authenticity of cell lines was confirmed at the DSMZ by STR (short tandem repeat) analysis, a PCR based DNA-fingerprinting methodology. Cell lines were routinely passaged once or twice weekly and maintained in culture for up to 20 passages. […] Briefly, cells were harvested from exponential phase cultures, counted and plated in 96-well flat-bottom microtiter plates at a cell density of 6,000-20,000 cells/well depending on the cell line's growth rate. […] Following an incubation period of up to four hours, fluorescence (FU) was measured by using the Enspire Multimode Plate Reader (excitation λ=531 nm, emission λ=615 nm). […]

[3] = tested on: Miapaca2 pancreatic cancer cell line; experiment: CellTiter-Blue cell viability assay, Miapaca2; format: cell-based; conditions: Homo sapiens, MIA PaCa-2; Miapaca1 cell line as printed; 96 hours treatment
Procedure: as §1

[4] = tested on: Panc 1 pancreatic cancer cell line; experiment: CellTiter-Blue cell viability assay, Panc1; format: cell-based; conditions: Homo sapiens, 96 hours treatment
Procedure: as §1

[5] = tested on: human pancreatic cancer cell lines; experiment: CellTiter-Blue cell viability assay, panel of pancreatic cancer cell lines; format: cell-based
Procedure: The in vitro anti-tumor activity of levormeloxifene or its pharmaceutically acceptable salt was evaluated in six human pancreatic cancer cell lines: AsPc 1 (A), BxPC3 (B), Miapaca2 (C), Panc 10.05 (D), SW1990 (E) and Panc 1 (F).
AsPc 1 (A), BxPC3 (B), Miapaca2 (C), Panc 10.05 (D), SW1990 (E) and Panc 1 (F) were established at Oncotest from the corresponding human patient derived xenograft. CAPAN-2, HUP-T3 and PA-TU-8902 were purchased from DSMZ (Braunschweig, Germany). PANC-1 was purchased from CLS Cell Line Services GmbH (Eppelheim, Germany). BxPC-3, HPAC and MIA-Pa-Ca-2 were purchased from ATCC (Rockville, Md., USA). Authenticity of cell lines was confirmed at the DSMZ by STR (short tandem repeat) analysis, a PCR based DNA-fingerprinting methodology. Cell lines were routinely passaged once or twice weekly and maintained in culture for up to 20 passages. […]
The CellTiter-Blue® Cell Viability Assay (#G8081, Promega) was used according to manufacturer's instructions. Briefly, cells were harvested from exponential phase cultures, counted and plated in 96-well flat-bottom microtiter plates at a cell density of 6,000-20,000 cells/well depending on the cell line's growth rate. […] Following an incubation period of up to four hours, fluorescence (FU) was measured by using the Enspire Multimode Plate Reader (excitation λ=531 nm, emission λ=615 nm). […]

[6] = tested on: SW1990 pancreatic cancer cell line; experiment: CellTiter-Blue cell viability assay, SW1990; format: cell-based; conditions: Homo sapiens, 96 hours treatment
Procedure: as §1

[7] = tested on: AsPc 1 pancreatic cancer cell line; experiment: CellTiter-Blue cell viability assay, AsPC1; format: cell-based; conditions: Homo sapiens, 96 hours treatment
Procedure: as §1

HPAC cell line = experiment: CellTiter-Blue cell viability assay, HPAC; format: cell-based; conditions: Homo sapiens, most resistant cell line, read-out: individual IC50
Excerpt: as §1, with “AsPc” for “The in vitro anti-tumor activity of levormeloxifene or its pharmaceutically acceptable salt was evaluated in six human pancreatic cancer cell lines: AsPc 1 (A), BxPC3 (B), Miapaca2 (C), Panc 10.05 (D), SW1990 (E) and Panc 1 (F). AsPc”, “passages. All cells were grown at 37° C. in a humidified atmosphere with 5% CO2 in RPMI 1640 medium (25 mM HEPES, with L-glutamine, #FG1385, Biochrom, Berlin, Germany) supplemented with 10% (v/v) fetal calf serum (Sigma, Taufkirchen, Germany) and 0.1 mg/mL gentamicin (Life Technologies, Karlsruhe, Germany).” for “passages.”

[8] = tested on: BxPC3 pancreatic cancer cell line; experiment: CellTiter-Blue cell viability assay, BxPC3; format: cell-based; conditions: Homo sapiens, BXPC-3, 96 hours treatment
Procedure: as §1

PA-TU-8902 cell line = experiment: CellTiter-Blue cell viability assay, PA-TU-8902; format: cell-based; conditions: Homo sapiens, PaTu 8902; PA-TU-8902, text value; read-out: individual IC50
Excerpt: as §1, with “AsPc” for “The in vitro anti-tumor activity of levormeloxifene or its pharmaceutically acceptable salt was evaluated in six human pancreatic cancer cell lines: AsPc 1 (A), BxPC3 (B), Miapaca2 (C), Panc 10.05 (D), SW1990 (E) and Panc 1 (F). AsPc”, “passages. All cells were grown at 37° C. in a humidified atmosphere with 5% CO2 in RPMI 1640 medium (25 mM HEPES, with L-glutamine, #FG1385, Biochrom, Berlin, Germany) supplemented with 10% (v/v) fetal calf serum (Sigma, Taufkirchen, Germany) and 0.1 mg/mL gentamicin (Life Technologies, Karlsruhe, Germany).” for “passages.”

**Q.** With `COc1ccc2c(c1)OC(C)(C)C(c1ccccc1)C2c1ccc(OCCN2CCCC2)cc1` (stereo not drawn) [Centchroman, ormeloxifene] as the compound, how does the half-life [1] read?
**A.** Its half-life is “about 168 hours”.

**Q.** Which results are given for `COc1ccc2c(c1)OC(C)(C)[C@@H](c1ccccc1)[C@@H]2c1ccc(OCCN2CCCC2)cc1` [levormeloxifene, (−)-3,4-trans-7-methoxy-2,2-dimethyl-3-phenyl-4-[4-[2-(pyrrolidin-1-yl)ethoxy]phenyl]chromane]?
**A.** receptor affinity relative to the D-isomer (estrogen receptor): about 7 times; IC50 [2]: 24 µM; IC50 [3]: 22 µM; IC50 [4]: 24 µM; difference between the most sensitive and most resistant cell line ([5]; HUP-T3 vs HPAC IC50): 7.4 fold; activity in all cell lines tested (concentration-effect curves) ([5]; sigmoidal concentration-effect curves): concentration-dependent activity; IC50 [6]: 27 µM; IC50 [7]: 18 µM; IC50 (HPAC cell line): 5350 µM; IC50 [8]: 21 µM; IC50 (PA-TU-8902 cell line): 1030 µM
